Values after ≈ are worked out from the molar mass of the structure shown.
What was measured:
Assay type in all cases: functional
Enterococcus faecium = assay: Antibacterial activity against VanA-type vancomycin-resistant Enterococcus faecium A2373; conditions: Enterococcus faecium, A2373; read-out: MIC
Escherichia coli = assay: Antibacterial activity against Escherichia coli ATCC 25922; conditions: Escherichia coli, ATCC 25922; read-out: MIC
Moraxella catarrhalis = assay: Antibacterial activity against Moraxella catarrhalis ATCC 25238; conditions: Moraxella catarrhalis, ATCC 25238; read-out: MIC
Streptococcus pneumoniae = assay: Antibacterial activity against Streptococcus pneumoniae IID554; conditions: Streptococcus pneumoniae, IID554; read-out: MIC
Acinetobacter baumannii = assay: Antibacterial activity against Acinetobacter baumannii IID876; conditions: Acinetobacter baumannii, IID876; read-out: MIC
Pseudomonas aeruginosa = assay: Antibacterial activity against Pseudomonas aeruginosa PAO1; conditions: Pseudomonas aeruginosa, PAO1; read-out: MIC
Enterococcus faecalis = assay: Antibacterial activity against Enterococcus faecalis ATCC 29212; conditions: Enterococcus faecalis, ATCC 29212; read-out: MIC
Staphylococcus aureus [1] = assay: Antibacterial activity against Staphylococcus aureus Smith; conditions: Staphylococcus aureus, Smith; read-out: MIC
Staphylococcus aureus [2] = assay: Ratio of MIC for quinolone-resistant Staphylococcus aureus MS5935 to MIC for quinolone-sensitive Staphylococcus aureus

Row | SMILES | MIC (Enterococcus faecium) | MIC (Escherichia coli) | MIC (Moraxella catarrhalis) | MIC (Streptococcus pneumoniae) | MIC (Acinetobacter baumannii) | MIC (Pseudomonas aeruginosa) | MIC (Enterococcus faecalis) | MIC (Staphylococcus aureus [1]) | Ratio (Staphylococcus aureus [2])
1 | O=c1ccc2ncc(F)c3c2n1C[C@@]3(O)CC12CCC(NCc3ccc4c(n3)NCCO4)(CC1)CO2 | 16 mg/L (≈ 32.4 µM) | 32 mg/L (≈ 64.8 µM) | 4 mg/L (≈ 8.1 µM) | 1 mg/L (≈ 2.03 µM) | 8 mg/L (≈ 16.2 µM) | 32 mg/L (≈ 64.8 µM) | 8 mg/L (≈ 16.2 µM) | 2 mg/L (≈ 4.05 µM) | 
2 | O=c1ccc2ncc(F)c3c2n1C[C@@]3(O)CC12CCC(NC/C=C/c3ccccc3)(CC1)CO2 | 8 mg/L (≈ 17.3 µM) | 32 mg/L (≈ 69.3 µM) |  | 0.5 mg/L (≈ 1.08 µM) | 4 mg/L (≈ 8.67 µM) | 64 mg/L (≈ 139 µM) | 4 mg/L (≈ 8.67 µM) | 0.125 mg/L (≈ 0.271 µM) | 
3 | Cn1c(=O)c(CNC23CCC(C[C@]4(O)Cn5c(=O)ccc6ncc(F)c4c65)(CC2)OC3)cc2ccccc21 | 64 mg/L (≈ 124 µM) | 64 mg/L (≈ 124 µM) |  | 8 mg/L (≈ 15.5 µM) | 64 mg/L (≈ 124 µM) | 64 mg/L (≈ 124 µM) | 64 mg/L (≈ 124 µM) | 16 mg/L (≈ 31 µM) | <4
4 | O=C1COc2cnc(CNC34CCC(C[C@]5(O)Cn6c(=O)ccc7ncc(F)c5c76)(CC3)OC4)cc2N1 | 32 mg/L (≈ 63.1 µM) | 16 mg/L (≈ 31.5 µM) |  | 4 mg/L (≈ 7.88 µM) | 32 mg/L (≈ 63.1 µM) | 32 mg/L (≈ 63.1 µM) | 8 mg/L (≈ 15.8 µM) | 4 mg/L (≈ 7.88 µM) | 
5 | O=c1ccc2ncc(F)c3c2n1C[C@@]3(O)CC12CCC(NCc3ccc4c(c3)OC(F)(F)O4)(CC1)CO2 | 32 mg/L (≈ 62.1 µM) | 32 mg/L (≈ 62.1 µM) | 4 mg/L (≈ 7.76 µM) | 1 mg/L (≈ 1.94 µM) | 32 mg/L (≈ 62.1 µM) | 32 mg/L (≈ 62.1 µM) | 8 mg/L (≈ 15.5 µM) | 0.25 mg/L (≈ 0.485 µM) | 
6 | O=c1ccc2ncc(F)c3c2n1C[C@@]3(O)CC12CCC(NCc3cc4c(cc3F)OCCO4)(CC1)CO2 | 8 mg/L (≈ 15.6 µM) | 32 mg/L (≈ 62.6 µM) | 8 mg/L (≈ 15.6 µM) | 0.5 mg/L (≈ 0.977 µM) | 8 mg/L (≈ 15.6 µM) | 32 mg/L (≈ 62.6 µM) | 2 mg/L (≈ 3.91 µM) | 0.25 mg/L (≈ 0.489 µM) | 
7 | O=c1ccc2ncc(F)c3c2n1C[C@@]3(O)CC12CCC(NC/C(F)=C\c3cc(F)ccc3F)(CC1)CO2 | 16 mg/L (≈ 31 µM) | 16 mg/L (≈ 31 µM) |  | 1 mg/L (≈ 1.94 µM) | 16 mg/L (≈ 31 µM) | 16 mg/L (≈ 31 µM) | 4 mg/L (≈ 7.76 µM) | 0.25 mg/L (≈ 0.485 µM) | <4
8 | O=c1ccc2ncc(F)c3c2n1C[C@@]3(O)CC12CCC(NCc3cc(-c4cccs4)on3)(CC1)CO2 | 16 mg/L (≈ 31.5 µM) | 16 mg/L (≈ 31.5 µM) |  | 0.5 mg/L (≈ 0.983 µM) | 16 mg/L (≈ 31.5 µM) | 16 mg/L (≈ 31.5 µM) | 2 mg/L (≈ 3.93 µM) | 0.25 mg/L (≈ 0.492 µM) | <4
9 | O=c1ccc2ncc(F)c3c2n1C[C@@]3(O)CC12CCC(NC/C=C/c3ccccn3)(CC1)CO2 | 64 mg/L (≈ 138 µM) | 64 mg/L (≈ 138 µM) |  | 4 mg/L (≈ 8.65 µM) | 32 mg/L (≈ 69.2 µM) | 64 mg/L (≈ 138 µM) | 32 mg/L (≈ 69.2 µM) | 1 mg/L (≈ 2.16 µM) | <4
10 | O=c1ccc2ncc(F)c3c2n1C[C@@]3(O)CC12CCC(NC/C=C/c3ccc(F)cc3)(CC1)CO2 | 32 mg/L (≈ 66.7 µM) | 64 mg/L (≈ 133 µM) |  | 4 mg/L (≈ 8.34 µM) | 32 mg/L (≈ 66.7 µM) | 64 mg/L (≈ 133 µM) | 16 mg/L (≈ 33.4 µM) | 0.5 mg/L (≈ 1.04 µM) | 
11 | O=c1ccc2ncc(F)c3c2n1C[C@@]3(O)CC12CCC(NC/C(F)=C/c3cc(F)ccc3F)(CC1)CO2 | 16 mg/L (≈ 31 µM) | 16 mg/L (≈ 31 µM) |  | 8 mg/L (≈ 15.5 µM) | 16 mg/L (≈ 31 µM) | 16 mg/L (≈ 31 µM) | 16 mg/L (≈ 31 µM) | 4 mg/L (≈ 7.76 µM) | <4
12 | O=c1ccc2ncc(F)c3c2n1C[C@@]3(O)CC12CCC(NCc3ccc4c(c3)OCCO4)(CC1)CO2 | 4 mg/L (≈ 8.1 µM) | 16 mg/L (≈ 32.4 µM) | 0.5 mg/L (≈ 1.01 µM) | 0.25 mg/L (≈ 0.507 µM) | 4 mg/L (≈ 8.1 µM) | 32 mg/L (≈ 64.8 µM) | 2 mg/L (≈ 4.05 µM) | 0.12 mg/L (≈ 0.243 µM) | 
13 | O=c1ccc2ncc(F)c3c2n1C[C@@]3(O)CC12CCC(NCc3ncc4c(c3Cl)OCCO4)(CC1)CO2 | 32 mg/L (≈ 60.5 µM) | 32 mg/L (≈ 60.5 µM) | 32 mg/L (≈ 60.5 µM) | 1 mg/L (≈ 1.89 µM) | 32 mg/L (≈ 60.5 µM) | 32 mg/L (≈ 60.5 µM) | 8 mg/L (≈ 15.1 µM) | 2 mg/L (≈ 3.78 µM) | 
14 | O=c1ccc2ncc(F)c3c2n1C[C@@]3(O)CC12CCC(NCc3ccc4c(c3)OCO4)(CC1)CO2 | 16 mg/L (≈ 33.4 µM) | 32 mg/L (≈ 66.7 µM) | 4 mg/L (≈ 8.34 µM) | 0.5 mg/L (≈ 1.04 µM) | 4 mg/L (≈ 8.34 µM) | 32 mg/L (≈ 66.7 µM) | 4 mg/L (≈ 8.34 µM) | 0.5 mg/L (≈ 1.04 µM) | 
15 | O=c1ccc2ncc(F)c3c2n1C[C@@]3(O)CC12CCC(NCc3ccc4c(n3)OCCO4)(CC1)CO2 | 32 mg/L (≈ 64.7 µM) | 32 mg/L (≈ 64.7 µM) | 32 mg/L (≈ 64.7 µM) | 2 mg/L (≈ 4.04 µM) | 32 mg/L (≈ 64.7 µM) | 32 mg/L (≈ 64.7 µM) | 8 mg/L (≈ 16.2 µM) | 2 mg/L (≈ 4.04 µM) | 
16 | O=C1CSc2ccc(CNC34CCC(C[C@]5(O)Cn6c(=O)ccc7ncc(F)c5c76)(CC3)OC4)nc2N1 | 8 mg/L (≈ 15.3 µM) | 4 mg/L (≈ 7.64 µM) |  | 0.5 mg/L (≈ 0.955 µM) | 2 mg/L (≈ 3.82 µM) | 16 mg/L (≈ 30.6 µM) | 2 mg/L (≈ 3.82 µM) | 0.25 mg/L (≈ 0.477 µM) | 
17 | O=c1ccc2ncc(F)c3c2n1C[C@@]3(O)CC12CCC(NCc3cc(Cl)c4c(c3Cl)OCCO4)(CC1)CO2 | 16 mg/L (≈ 28.4 µM) | 32 mg/L (≈ 56.9 µM) | 2 mg/L (≈ 3.56 µM) | 0.25 mg/L (≈ 0.445 µM) | 32 mg/L (≈ 56.9 µM) | 32 mg/L (≈ 56.9 µM) | 4 mg/L (≈ 7.11 µM) | 0.5 mg/L (≈ 0.889 µM) | 
18 | O=C1COc2ccc(CNC34CCC(C[C@]5(O)Cn6c(=O)ccc7ncc(F)c5c76)(CC3)OC4)cc2N1 | 16 mg/L (≈ 31.6 µM) | 6 mg/L (≈ 11.8 µM) |  | 1 mg/L (≈ 1.97 µM) | 8 mg/L (≈ 15.8 µM) | 16 mg/L (≈ 31.6 µM) | 4 mg/L (≈ 7.9 µM) | 1.5 mg/L (≈ 2.96 µM) | 

— ChEMBL document CHEMBL3425423, “Hydroxy tricyclic 1,5-naphthyridinone oxabicyclooctane-linked novel bacterial topoisomerase inhibitors as broad-spectrum antibacterial agents-SAR of RHS moiety (Part-3)” (Bioorg Med Chem Lett, 2015)
